Reference: ChEMBL document CHEMBL1201862, “PubChem BioAssay data set” (2004)
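Method: 48-hour compound exposure of cells in 96-well plates, five concentrations, linear interpolation of endpoints. GI50 = concentration required for 50% inhibition of growth.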 Active and inactive are the calls of the source. No stated cut-off is given here; in the data, active = GI50 up to about 1.1 µM and inactive = higher. Residues, ends and D or L forms follow the SMILES beside them. *: point of attachment. Fmoc = O=C(OCC1c2ccccc2-c2ccccc21)*; Boc = CC(C)(C)OC(=O)*

Key:
Test in all cases: NCI-60 cell line screen, 48 h
LXFL 529 = test system: LXFL 529
RPMI-8226 = test system: RPMI-8226
TK-10 = test system: TK-10
A549 = test system: A549
OVCAR-5 = test system: OVCAR-5
COLO 205 = test system: COLO 205
OVCAR-8 = test system: OVCAR-8
SF-295 = test system: SF-295
NCI-H23 = test system: NCI-H23
SW-620 = test system: SW-620
HCC 2998 = test system: HCC 2998
K562 = test system: K562
HOP-92 = test system: HOP-92
UO-31 = test system: UO-31
SNB-75 = test system: SNB-75
MCF7 = test system: MCF7
DU-145 = test system: DU-145
CAKI-1 = test system: CAKI-1
MDA-MB-435 = test system: MDA-MB-435
SR = test system: SR

Measured: GI50

CCNc1nc2c(=O)n(C)c(=O)n(C)c2s1
inactive: LXFL 529 > 100 µM | RPMI-8226 > 100 µM | TK-10 > 100 µM | A549 > 100 µM | OVCAR-5 > 100 µM | COLO 205 > 100 µM | OVCAR-8 > 100 µM | SF-295 > 100 µM | NCI-H23 > 100 µM | SW-620 > 100 µM | HCC 2998 > 100 µM | K562 > 100 µM | HOP-92 > 100 µM | UO-31 > 100 µM | SNB-75 > 100 µM

CN(C)c1nc(NN)c2c(-c3ccccc3)c(-c3ccccc3)oc2n1
inactive: MCF7 > 100 µM | DU-145 > 100 µM | RPMI-8226 > 100 µM | CAKI-1 > 100 µM | MDA-MB-435 > 100 µM | TK-10 > 100 µM | A549 > 100 µM | OVCAR-5 > 100 µM | COLO 205 > 100 µM | OVCAR-8 > 100 µM | SF-295 > 100 µM | NCI-H23 > 100 µM | SW-620 > 100 µM | HCC 2998 > 100 µM | SR 72.3 µM | K562 49 µM | HOP-92 > 100 µM | UO-31 > 100 µM | SNB-75 96.8 µM

CC(NNC(=O)c1ccncc1)c1ccc(Cl)c(Cl)c1 (stereo not given)
inactive: MCF7 > 100 µM | DU-145 > 100 µM | RPMI-8226 75.5 µM | CAKI-1 > 100 µM | MDA-MB-435 > 100 µM | TK-10 > 100 µM | A549 > 100 µM | OVCAR-5 > 100 µM | COLO 205 > 100 µM | OVCAR-8 > 100 µM | SF-295 > 100 µM | NCI-H23 57.7 µM | SW-620 > 100 µM | HCC 2998 > 100 µM | SR 60.8 µM | K562 38.4 µM | HOP-92 > 100 µM | UO-31 54.6 µM | SNB-75 > 100 µM

CC1=NN(C(=O)CC(=O)Nc2ccc(Cl)cc2)C(=O)C1/N=N\c1ccc(S(=O)(=O)c2ccc(/N=N/C3C(=O)N(C(=O)CC(=O)Nc4ccc(Cl)cc4)N=C3C)cc2)cc1 (stereo not given)
inactive: MCF7 > 100 µM | DU-145 > 100 µM | RPMI-8226 > 100 µM | CAKI-1 > 100 µM | MDA-MB-435 > 100 µM | TK-10 35.7 µM | A549 > 100 µM | OVCAR-5 42.3 µM | COLO 205 > 100 µM | OVCAR-8 > 100 µM | SF-295 > 100 µM | NCI-H23 > 100 µM | SW-620 > 100 µM | HCC 2998 > 100 µM | SR > 100 µM | K562 77.1 µM | HOP-92 > 100 µM | UO-31 > 100 µM | SNB-75 39.5 µM

O=C(c1ccccc1)C(c1ccccc1)C1(O)C(=O)Nc2ccc([N+](=O)[O-])cc21 (stereo not given)
inactive: LXFL 529 32.9 µM | RPMI-8226 37.7 µM | CAKI-1 > 100 µM | TK-10 > 100 µM | A549 > 100 µM | OVCAR-5 > 100 µM | COLO 205 26.2 µM | OVCAR-8 > 100 µM | NCI-H23 92 µM | SW-620 > 100 µM | HCC 2998 > 100 µM | K562 42.7 µM | HOP-92 31.8 µM | UO-31 47.6 µM | SNB-75 61 µM

O=C(CC1(O)C(=O)Nc2ccc([N+](=O)[O-])cc21)c1ccc(Br)cc1 (stereo not given)
inactive: LXFL 529 47.1 µM | RPMI-8226 35.5 µM | TK-10 32.7 µM | A549 > 100 µM | OVCAR-5 > 100 µM | COLO 205 > 100 µM | OVCAR-8 39.8 µM | SF-295 52.6 µM | NCI-H23 40.6 µM | SW-620 > 10 µM | HCC 2998 > 100 µM | K562 54.6 µM | UO-31 45.1 µM | SNB-75 23.3 µM

NC1=NC(=O)C(CC(=O)Nc2ccc(Cl)cc2Cl)S1 (stereo not given)
inactive: LXFL 529 > 100 µM | RPMI-8226 > 100 µM | CAKI-1 > 100 µM | TK-10 > 100 µM | A549 > 100 µM | OVCAR-5 > 100 µM | COLO 205 > 100 µM | OVCAR-8 > 100 µM | SF-295 > 100 µM | NCI-H23 > 100 µM | SW-620 > 100 µM | HCC 2998 > 100 µM | K562 > 100 µM | UO-31 > 100 µM | SNB-75 > 100 µM

CC(C)(C)OC(=O)NCCCCC(NC(=O)C(Cc1c[nH]c2ccccc12)NC(=O)OCC1c2ccccc2-c2ccccc21)C(=O)N1CCCC1C(=O)NCC(N)=O (stereo not given) (Fmoc-WK(Boc)PG-NH2; configuration not given here)
inactive: MCF7 > 100 µM | DU-145 > 100 µM | RPMI-8226 > 100 µM | CAKI-1 > 100 µM | MDA-MB-435 > 100 µM | TK-10 > 100 µM | A549 > 100 µM | OVCAR-5 > 100 µM | COLO 205 > 100 µM | OVCAR-8 > 100 µM | SF-295 60.3 µM | NCI-H23 > 100 µM | SW-620 > 100 µM | HCC 2998 > 100 µM | SR > 100 µM | K562 > 100 µM | HOP-92 > 100 µM | UO-31 > 100 µM | SNB-75 > 100 µM
